Consider two molecules from patent publication US8168656B2, “Indoleacetic acid and indenacetic acid derivatives as therapeutic agents with reduced gastrointestinal toxicity” (Vanderbilt University, priority 2009, dated 2012).

The test system of one series is cultured cancer cells. Briefly: Induction of apoptosis of cultured cancer cells. It is filed as cell-based, human. The protocol: RKO, HCT-116 (another human colorectal cancer cell line), and H1299 (a human non-small cell cancer line) cells that had been treated with test compounds for various times were washed twice with ice-cold PBS and lysed in a lysis buffer (BioVision) on ice for 10 minutes, followed by centrifugation at 15,000×g for 10 minutes. Caspase-3 activity, which is a measure if the initiation of apoptotic cell death, was determined in the supernatant by a colorimeric assay kit (BioVision Inc., Palo Alto, Calif., United States of America) using the p-nitroanilide-labeled peptide, DEVD-pNA, as substrate. Caspase-3 activity was monitored by the release of p-nitroanilide from the substrate at 405 nm. The fold increase in caspase-3 activity is shown in FIG. 9, and was calculated by comparing the absorbance of p-nitroanilide from vehicle treated controls and those treated with sulindac sulfide and its analogs. […]

Another series concerns PPARγ. The experiment in a line: PPARγ reporter assay in transfected HEK293 cells. The class given is cell-based. To be noted: transfected cells in culture. The procedure:
Human embryonic kidney cells (HEK293 cells) were purchased from American Type Culture Collection (ATCC) and maintained in Dulbecco's modified Eagle's medium (DMEM) with GIBCO™ GLUTAMAX™ (Invitrogen Corp., Carlsbad, Calif., United States of America) and 10% heat-inactivated FBS (Atlas Biological, Fort Collins, Colo., United States of America) or 10% charcoal-stripped FBS (HyClone, Logan, Utah, United States of America) in a 5% CO2 constant humidity 37° C. incubator. 9×10^5 HEK293 cells were plated in DMEM supplemented with 10% charcoal-stripped FBS. 18-24 hours after plating, cells were transfected with a control Renilla luciferase expressing plasmid (0.2 μg pCMV-renilla luciferase from Promega Corp., Madison, Wis., United States of America), 0.4 μg PPARγ-GAL4, and 0.4 μg UAS-tk-luc using a lipid ratio of 8 μL Effectene Transfection Reagent (Qiagen Inc., Valencia, Calif., United States of America) per 1 μg DNA in 3 mL of DMEM+10% charcoal-stripped FBS. Cells remained in the transfection mixture overnight until the transfection media was replaced with DMEM+10% charcoal-stripped serum containing ligands of interest or vehicle (0.1% DMSO) […]
(In general: A reporter such as luciferase makes a cellular process visible.)

The next series has as its system C57/BL6 mice. The experiment in a line: Toxicity in vivo, daily injections. Conditions: daily injections of a series of concentrations.

Consider `COc1ccc2c(c1)c(CC(=O)O)cn2C(=O)c1ccc(Cl)cc1` [2-Des-methylindomethacin, [1-(4-Chloro-benzoyl)-5-methoxy-1H-indol-3-yl]-acetic acid], for which the “ability to induce apoptosis of cultured cancer cells, compared with parent drug” value with cultured cancer cells is given as “as active or more active than the parent drug”. The “ability to activate PPARγ-mediated transcription in transfected cells, compared with parent drug” value with PPARγ is on record as “as active or more active than the parent drug”. In the series on C57/BL6 mice, the “less toxic than indomethacin” value was “at least 25 fold”.

As to `CSc1ccc(C=C2C=C(CC(=O)O)c3cc(F)ccc32)cc1` [eindenic acid sulfide, [6-Fluoro-3-(4-methylsulfanyl-benzylidene)-3H-inden-1-yl]-acetic acid], the “ability to induce apoptosis of cultured cancer cells, compared with parent drug” value in the series on cultured cancer cells is on record as “considerably more active than sulindac sulfide”. For the same molecule, the “ability to activate PPARγ-mediated transcription in transfected cells, compared with parent drug” value in the series on PPARγ is recorded as “considerably more active than sulindac sulfide”.
